Source: patent US8501770B2 (ArQule, Inc., priority 2009, dated 2013)
Where two headings read alike, the source gives them in different places.

Biological target: Full-length inactive AKT1 (Homo sapiens, UniProt P31749)
Test: Inactive Akt Alpha Screen Assay
Assay type: biochemical
Conditions: read-out: Akt1 IC50, (AlphaScreen)
Description: AKT1 activity was assayed using the GSK3-derived biotinylated peptide substrate, crosstide (biotin-[…]), and AlphaScreen™ (Amplified Luminescent Proximity Homogeneous Assay) technology. AKT1 activation was achieved by the addition of the activating kinases PDK1 and MAPKAPK2, lipid vesicles, and ATP. The extent of peptide phosphorylation was determined using a phospho-AKT substrate antibody and acceptor beads conjugated to Protein A and donor beads conjugated to streptavidin that bind to the biotin on the peptide. Excitation of the donor beads converted ambient oxygen to excited singlet oxygen which, when in close proximity to acceptor beads, reacted with acceptor beads resulting in signal amplification.
Assay plates were incubated for 90 minutes at room temperature in the dark, and the plates were read on a Perkin Elmer Envision Multilabel plate reader (excitation wavelength: […], emission wavelength: 570 nm).

[1] = values not marked with "*": AlphaScreen assay

Sequence of Full-length inactive AKT1 (P31749 whole entry): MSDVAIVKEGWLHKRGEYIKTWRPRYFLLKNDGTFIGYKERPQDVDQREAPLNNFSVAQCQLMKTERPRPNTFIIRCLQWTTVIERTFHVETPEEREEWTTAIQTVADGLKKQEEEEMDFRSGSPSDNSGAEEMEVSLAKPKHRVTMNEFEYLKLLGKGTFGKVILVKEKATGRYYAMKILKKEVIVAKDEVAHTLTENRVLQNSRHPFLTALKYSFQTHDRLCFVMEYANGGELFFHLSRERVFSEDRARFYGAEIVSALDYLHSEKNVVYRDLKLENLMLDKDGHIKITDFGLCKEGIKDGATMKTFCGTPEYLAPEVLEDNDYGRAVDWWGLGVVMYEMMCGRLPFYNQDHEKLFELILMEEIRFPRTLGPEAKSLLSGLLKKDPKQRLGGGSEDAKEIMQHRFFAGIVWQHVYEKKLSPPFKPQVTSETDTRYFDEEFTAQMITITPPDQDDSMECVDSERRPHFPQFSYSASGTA

Row | IC50 [1] [nM] | IC50 (values not marked with "*") [nM] | SMILES
1 | 260 |  | COc1cccc(S(=O)(=O)NCc2ccc(-n3c(-c4cccnc4N)nc4cc(Br)cnc43)cc2)c1 [Example 149, N-{4-[2-(2-aminopyridin-3-yl)-6-bromo-3H-imidazo[4,5-b]pyridin-3-yl]benzyl}-3-methoxybenzenesulfonamide]
2 | 2300 |  | Nc1ncccc1-c1nc2cc(Br)cnc2n1-c1ccc(CNS(=O)(=O)c2ccc(F)c(Cl)c2)cc1 [Example 150, N-{4-[2-(2-aminopyridin-3-yl)-6-bromo-3H-imidazo[4,5-b]pyridin-3-yl]benzyl}-3-chloro-4-fluorobenzenesulfonamide]
3 | 340 |  | Nc1ncccc1-c1nc2cc(Br)cnc2n1-c1ccc(CNS(=O)(=O)C2CCCCC2)cc1 [Example 151, N-{4-[2-(2-aminopyridin-3-yl)-6-bromo-3H-imidazo[4,5-b]pyridin-3-yl]benzyl}cyclohexanesulfonamide]
4 | 240 |  | CC(C)CS(=O)(=O)NCc1ccc(-n2c(-c3cccnc3N)nc3cc(Br)cnc32)cc1 [Example 152, N-{4-[2-(2-aminopyridin-3-yl)-6-bromo-3H-imidazo[4,5-b]pyridin-3-yl]benzyl}-2-methylpropane-1-sulfonamide]
5 | 440 |  | CCCCS(=O)(=O)NCc1ccc(-n2c(-c3cccnc3N)nc3cc(Br)cnc32)cc1 [Example 153, N-{4-[2-(2-aminopyridin-3-yl)-6-bromo-3H-imidazo[4,5-b]pyridin-3-yl]benzyl}butane-1-sulfonamide]
6 | 1200 |  | Cc1noc(C)c1S(=O)(=O)NCc1ccc(-n2c(-c3cccnc3N)nc3cc(Br)cnc32)cc1 [Example 154, N-{4-[2-(2-aminopyridin-3-yl)-6-bromo-3H-imidazo[4,5-b]pyridin-3-yl]benzyl}-3,5-dimethylisoxazole-4-sulfonamide]
7 | 140 |  | Nc1ncccc1-c1nc2cc(Br)cnc2n1-c1ccc(CNS(=O)(=O)c2cccs2)cc1 [Example 155, N-{4-[2-(2-aminopyridin-3-yl)-6-bromo-3H-imidazo[4,5-b]pyridin-3-yl]benzyl}thiophene-2-sulfonamide]
8 | 1200 |  | Nc1ncccc1-c1nc2cc(Br)cnc2n1-c1ccc(CNS(=O)(=O)c2cccc(Cl)c2)cc1 [Example 156, N-{4-[2-(2-aminopyridin-3-yl)-6-bromo-3H-imidazo[4,5-b]pyridin-3-yl]benzyl}-3-chlorobenzenesulfonamide]
9 |  | 490 | Nc1ncccc1-c1nc2cc(Br)cnc2n1-c1ccc(CNS(=O)(=O)c2ccc(F)cc2)cc1 [Example 158, N-{4-[2-(2-aminopyridin-3-yl)-6-bromo-3H-imidazo[4,5-b]pyridin-3-yl]benzyl}-4-fluorobenzenesulfonamide]
10 |  | 200 | Nc1ncccc1-c1nc2cc(Br)cnc2n1-c1ccc(CNS(=O)(=O)c2c(F)cccc2F)cc1 [Example 159, N-{4-[2-(2-aminopyridin-3-yl)-6-bromo-3H-imidazo[4,5-b]pyridin-3-yl]benzyl}-2,6-difluorobenzenesulfonamide]
11 |  | 330 | Nc1ncccc1-c1nc2cc(Br)cnc2n1-c1ccc(CNS(=O)(=O)c2cccc(F)c2)cc1 [Example 160, N-{4-[2-(2-aminopyridin-3-yl)-6-bromo-3H-imidazo[4,5-b]pyridin-3-yl]benzyl}-3-fluorobenzenesulfonamide]
12 |  | 290 | Nc1ncccc1-c1nc2cc(Br)cnc2n1-c1ccc(CNS(=O)(=O)c2ccc3c(c2)CCO3)cc1 [Example 161, N-{4-[2-(2-aminopyridin-3-yl)-6-bromo-3H-imidazo[4,5-b]pyridin-3-yl]benzyl}-2,3-dihydro-1-benzofuran-5-sulfonamide]
13 |  | 450 | Cc1ccc(S(=O)(=O)NCc2ccc(-n3c(-c4cccnc4N)nc4cc(Br)cnc43)cc2)cc1 [Example 162, N-{4-[2-(2-aminopyridin-3-yl)-6-bromo-3H-imidazo[4,5-b]pyridin-3-yl]benzyl}-4-methylbenzenesulfonamide]
14 |  | 400 | Cc1cccc(S(=O)(=O)NCc2ccc(-n3c(-c4cccnc4N)nc4cc(Br)cnc43)cc2)c1 [Example 163, N-{4-[2-(2-aminopyridin-3-yl)-6-bromo-3H-imidazo[4,5-b]pyridin-3-yl]benzyl}-3-methylbenzenesulfonamide]
15 |  | 620 | Nc1ncccc1-c1nc2cc(Br)cnc2n1-c1ccc(CNS(=O)(=O)c2cccc3cccnc23)cc1 [Example 164, N-{4-[2-(2-aminopyridin-3-yl)-6-bromo-3H-imidazo[4,5-b]pyridin-3-yl]benzyl}quinoline-8-sulfonamide]
16 |  | 2100 | N#Cc1ccc(S(=O)(=O)NCc2ccc(-n3c(-c4cccnc4N)nc4cc(Br)cnc43)cc2)cc1 [Example 165, N-{4-[2-(2-aminopyridin-3-yl)-6-bromo-3H-imidazo[4,5-b]pyridin-3-yl]benzyl}-4-cyanobenzenesulfonamide]
17 |  | 440 | Cn1cnc(S(=O)(=O)NCc2ccc(-n3c(-c4cccnc4N)nc4cc(Br)cnc43)cc2)c1 [Example 166, N-{4-[2-(2-aminopyridin-3-yl)-6-bromo-3H-imidazo[4,5-b]pyridin-3-yl]benzyl}-1-methyl-1H-imidazole-4-sulfonamide]
18 |  | 480 | Cc1ccc(C)c(S(=O)(=O)NCc2ccc(-n3c(-c4cccnc4N)nc4cc(Br)cnc43)cc2)c1 [Example 167, N-{4-[2-(2-aminopyridin-3-yl)-6-bromo-3H-imidazo[4,5-b]pyridin-3-yl]benzyl}-2,5-dimethylbenzenesulfonamide]
19 |  | 170 | Nc1ncccc1-c1nc2cc(Br)cnc2n1-c1ccc(CNS(=O)(=O)C2CC2)cc1 [Example 168, N-{4-[2-(2-aminopyridin-3-yl)-6-bromo-3H-imidazo[4,5-b]pyridin-3-yl]benzyl}cyclopropanesulfonamide]
20 |  | 190 | Nc1ncccc1-c1nc2cc(Br)cnc2n1-c1ccc(CNS(=O)(=O)c2ccsc2)cc1 [Example 169, N-{4-[2-(2-aminopyridin-3-yl)-6-bromo-3H-imidazo[4,5-b]pyridin-3-yl]benzyl}thiophene-3-sulfonamide]
21 |  | 490 | CCS(=O)(=O)NCc1ccc(-n2c(-c3cccnc3N)nc3cc(Br)cnc32)cc1 [Example 170, N-{4-[2-(2-aminopyridin-3-yl)-6-bromo-3H-imidazo[4,5-b]pyridin-3-yl]benzyl}ethanesulfonamide]
22 |  | 350 | Nc1ncccc1-c1nc2cc(Br)cnc2n1-c1ccc(CNS(=O)(=O)c2ccccc2F)cc1 [Example 171, N-{4-[2-(2-aminopyridin-3-yl)-6-bromo-3H-imidazo[4,5-b]pyridin-3-yl]benzyl}-2-fluorobenzenesulfonamide]
23 |  | 99 | CC(C)(C)c1ccc(C(=O)NCc2ccc(-n3c(-c4cccnc4N)nc4cccnc43)cc2)cc1 [Example 172, N-{4-[2-(2-aminopyridin-3-yl)-3H-imidazo[4,5-b]pyridin-3-yl]benzyl}-4-tert-butylbenzamide]
24 |  | 26 | Nc1ncccc1-c1nc2cc(-c3ccc(CO)cc3)cnc2n1-c1ccc(CNC(=O)c2ccccc2)cc1 [Example 173, N-(4-{2-(2-aminopyridin-3-yl)-6-[4-(hydroxymethyl)phenyl]-3H-imidazo[4,5-b]pyridin-3-yl}benzyl)benzamide]
25 |  | 38 | CC(=O)Nc1cccc(-c2cnc3c(c2)nc(-c2cccnc2N)n3-c2ccc(CNC(=O)c3ccccc3)cc2)c1 [Example 174, N-(4-{6-[3-(acetylamino)phenyl]-2-(2-aminopyridin-3-yl)-3H-imidazo[4,5-b]pyridin-3-yl}benzyl)benzamide]
